Data reported in patent US7935815B2, “Imidazoyl pyridine compounds and salts thereof” (Eisai R&D Management Co., Ltd., priority 2007, dated 2011).

system: Aβ42 production; assay: Quantification of Aβ peptide in culture of neurons from rat fetus brain (Aβ ELISA); assay type: cell-based; conditions: Rattus norvegicus, Neuron, 72 h, rat primary neuronal culture (embryonic day 18 Wistar rat cerebral cortex); cultured three days after addition of compound; Aβx-42 ELISA of the medium; read-out: Aβ42 production reducing effect IC50
Description: Quantification of Aβ Peptide in Culture of Neurons from Rat Fetus Brain
(1) Rat Primary Neuronal Culture
Primary neuronal cultures were prepared from the cerebral cortex of embryonic day 18 Wistar rats (Charles River Japan, Yokohama, Japan). Specifically, the embryos were aseptically removed from pregnant rats under ether anesthesia. The brain was isolated from the embryo and immersed in an ice-cold L-15 medium (Invitrogen Corp. Cat #11415-064, Carlsbad, Calif., USA, or SIGMA L1518, for example). The cerebral cortex was collected from the isolated brain under a stereoscopic microscope. The cerebral cortex fragments collected were enzymatically treated in an enzyme solution containing 0.25% trypsin (Invitrogen Corp. Cat #15050-065, Carlsbad, Calif., USA) and 0.01% DNase (Sigma D5025, St. Louis, Mo., USA) at 37° C. for 30 minutes to disperse the cells. Here, the enzymatic reaction was stopped by adding inactivated horse serum to the solution. The enzymatically treated solution was centrifuged at 1,500 rpm for five minutes to remove the supernatant. 5 to 10 ml of a medium was added to the resulting cell mass. Neurobasal medium (Invitrogen Corp. Cat #21103-049, Carlsbad, Calif., USA) supplemented with 2% B27 supplement (Invitrogen Corp. Cat #17504-044, Carlsbad, Calif., USA), 25 μM 2-mercaptoethanol (2-ME, WAKO Cat #139-06861, Osaka, Japan), 0.5 mM L-glutamine (Invitrogen Corp. Cat #25030-081, Carlsbad, Calif., USA), and Antibiotics-Antimycotics (Invitrogen Corp. Cat #15240-062, Carlsbad, Calif., USA) was used as the medium (Neurobasal/B27/2-ME). However, the above Neurobasal medium not supplemented with 2-ME (Neurobasal/B27) was used for the assay. The cells were redispersed by mild pipetting of the cell mass to which the medium was added. The cell dispersion was filtered through a 40-μm nylon mesh (Cell Strainer, Cat #35-2340, Becton Dickinson Labware, Franklin Lakes, N.J., USA) to remove the remaining cell mass, and thus a neuronal cell suspension was obtained. The neuronal cell suspension was diluted with the medium and then plated in a volume of 100 μl/well at an initial cell density of 5×10^5 cells/cm^2 in a 96-well polystyrene culture plate pre-coated with poly-L or D-lysine (Falcon Cat #35-3075, Becton Dickinson Labware, Franklin Lakes, N.J., USA coated with poly-L-lysine using the method shown below, or BIOCOAT™ cell environments Poly-D-lysine cell ware 96-well plate, Cat #35-6461, Becton Dickinson Labware, Franklin Lakes, N.J., USA). Poly-L-lysine coating was carried out as follows. 100 μg/ml of a poly-L-lysine (SIGMA P2636, St. Louis, Mo., USA) solution was aseptically prepared with a 0.15 M borate buffer (pH 8.5). 100 μl/well of the solution was added to the 96-well polystyrene culture plate and incubated at room temperature for one or more hours or at 4° C. overnight or longer. The coated 96-well polystyrene culture plate was washed with sterile water four or more times, and then dried or rinsed with, for example, sterile PBS or medium, and used for cell plating. The plated cells were cultured in the culture plate at 37° C. in 5% CO2-95% air for one day. Then, the total amount of the medium was replaced with a fresh Neurobasal™/B27/2-ME medium, and then the cells were cultured for further three days.
The drug was added to the culture plate on Day 4 of culture as follows. The total amount of the medium was removed from the wells, and 180 μl/well of Neurobasal medium not containing 2-ME and containing 2% B-27 (Neurobasal/B27) was added thereto. A solution of the test compound in dimethyl sulfoxide (hereinafter abbreviated as DMSO) was diluted with Neurobasal/B27 at 10-fold of the final concentration. 20 μl/well of the dilution was added to and sufficiently mixed with the medium. The final DMSO concentration was 1% or less. Only DMSO was added to the control group.
The cells were cultured for three days after addition of the compound, and the total amount of the medium was collected. […]

| Structure (SMILES) | IC50 [nM] |
| --- | --- |
| COc1cc(/C=C/c2nc3n(n2)CCCCN3c2ccc(F)cc2)ccc1-n1cnc(C)c1 [Example 165, 8-(4-fluorophenyl)-2-{(E)-2-[3-methoxy-4-(4-methyl-1H-imidazol-1-yl)phenyl]vinyl}-5,6,7,8-tetrahydro-4H-1,3,3a,8-tetraazaazulene] | 115 |
| COc1nc(/C=C/c2nc3n(n2)CCC3c2cc(F)cc(F)c2)ccc1-n1cnc(C)c1 (stereo not shown) [Example 384, 7-(3,5-difluorophenyl)-2-{(E)-2-[6-methoxy-5-(4-methyl-1H-imidazol-1-yl)pyridin-2-yl]vinyl}-6,7-dihydro-5H-pyrrolo[1,2-b][1,2,4]triazole] | 36 |
| COc1nc(/C=C/c2nc3n(n2)CCCC3c2ccccc2OC(F)(F)F)ccc1-n1cnc(C)c1 (single isomer, unassigned; (-)) [Example 283, (−)-8-(2-trifluoromethoxyphenyl)-2-{(E)-2-[6-methoxy-5-(4-methyl-1H-imidazol-1-yl)pyridin-2-yl]vinyl}-5,6,7,8-tetrahydro-[1,2,4]triazolo[1,5-a]pyridine] | 27 |
| COc1cc(/C=C/c2nc3n(n2)CCCC3c2ccc(C(C)C)cc2)ccc1-n1cnc(C)c1 (single isomer, unassigned; (-)) [Example 5, (−)-8-(4-isopropylphenyl)-2-{(E)-2-[3-methoxy-4-(4-methyl-1H-imidazol-1-yl)phenyl]vinyl}-5,6,7,8-tetrahydro[1,2,4]triazolo[1,5-a]pyridine] | 21 |
| COCc1ccccc1C1CCCn2nc(/C=C/c3ccc(-n4cnc(C)c4)c(OC)c3)nc21 (single isomer, unassigned; (-)) [Example 22, (−)-2-{(E)-2-[3-methoxy-4-(4-methyl-1H-imidazol-1-yl)phenyl]vinyl}-8-(2-methoxymethylphenyl)-5,6,7,8-tetrahydro-[1,2,4]triazolo[1,5-a]pyridine] | 25 |
| COc1cc(/C=C/c2nc3n(n2)CCC[C@]3(C#N)c2cc(F)c(F)c(F)c2)ccc1-n1cnc(C)c1 (single isomer, unassigned) [Example 72, (−)-2-{(E)-2-[3-methoxy-4-(4-methyl-1H-imidazol-1-yl)phenyl]vinyl}-8-(3,4,5-trifluorophenyl)-5,6,7,8-tetrahydro[1,2,4]triazolo[1,5-a]pyridine-8-carbonitrile] | 26 |
| COc1nc(/C=C/c2nc3n(n2)CC[C@H](C)N3c2ccc(F)cc2)ccc1-n1cnc(C)c1 [Example 236, (S)-4-(4-fluorophenyl)-2-{(E)-2-[6-methoxy-5-(4-methyl-1H-imidazol-1-yl)pyridin-2-yl]vinyl}-5-methyl-4,5,6,7-tetrahydro-[1,2,4]triazolo[1,5-a]pyrimidine] | 39 |
| COc1nc(/C=C/c2nc3n(n2)CCCC3c2ccc(F)cc2C(F)(F)F)ccc1-n1cnc(C)c1 (single isomer, unassigned; (-)) [Example 286, (−)-8-(2-trifluoromethyl-4-fluorophenyl)-2-{(E)-2-[6-methoxy-5-(4-methyl-1H-imidazol-1-yl)pyridin-2-yl]vinyl}-5,6,7,8-tetrahydro-[1,2,4]triazolo[1,5-a]pyridine] | 8 |
| COc1nc(/C=C/c2nc3n(n2)CCC[C@H]3c2ccccc2C(F)(F)F)ccc1-n1cnc(C)c1 (single isomer, unassigned) [Example 195] | 17 |
| COc1cc(/C=C/c2nc3n(n2)CCCC3c2ccc(F)c(F)c2)cnc1-n1cnc(C)c1 (single isomer, unassigned) [Example 218, (−)-8-(3,4-difluorophenyl)-2-{(E)-2-[5-methoxy-6-(4-methyl-1H-imidazol-1-yl)pyridin-3-yl]vinyl}-5,6,7,8-tetrahydro-[1,2,4]triazolo[1,5-a]pyridine] | 69 |
| COc1nc(/C=C/c2nc3n(n2)CCC[C@@H]3c2cc(F)ccc2F)ccc1-n1cnc(C)c1 (single isomer, unassigned) [Example 183, (−)-8-(2,5-difluorophenyl)-2-{(E)-2-[6-methoxy-5-(4-methyl-1H-imidazol-1-yl)pyridin-2-yl]vinyl}-5,6,7,8-tetrahydro[1,2,4]triazolo[1,5-a]pyridine] | 48 |
| COc1cc(/C=C/c2nc3n(n2)CCC[C@@H]3C2CCOCC2)ccc1-n1cnc(C)c1 (single isomer, unassigned) [Example 116, (−)-2-{(E)-2-[3-methoxy-4-(4-methyl-1H-imidazol-1-yl)phenyl]vinyl}-8-(tetrahydropyran-4-yl)-5,6,7,8-tetrahydro[1,2,4]triazolo[1,5-a]pyridine] | 173 |
| COc1nc(/C=C/c2nc3n(n2)CCCC3c2cccc(F)c2C)ccc1-n1cnc(C)c1 (single isomer, unassigned; (-)) [Example 333, (−)-8-(3-fluoro-2-methylphenyl)-2-{(E)-2-[6-methoxy-5-(4-methyl-1H-imidazol-1-yl)pyridin-2-yl]vinyl}-5,6,7,8-tetrahydro-[1,2,4]triazolo[1,5-a]pyridine] | 10 |
| Cc1cn(-c2ccc(/C=C/c3nc4n(n3)CCCC4c3ccccc3C(F)(F)F)nc2OCC(F)F)cn1 (single isomer, unassigned; (-)) [Example 354, (−)-2-{(E)-2-[5-(4-methyl-1H-imidazol-1-yl)-6-(2,2-difluoroethoxy)pyridin-2-yl]vinyl}-8-(2-trifluoromethylphenyl)-5,6,7,8-tetrahydro-[1,2,4]triazolo[1,5-a]pyridine] | 37 |
| COc1nc(/C=C/c2nc3n(n2)CCC[C@H]3c2cccc(C)c2F)ccc1-n1cnc(C)c1 (single isomer, unassigned) [Example 282, (−)-8-(2-fluoro-3-methylphenyl)-2-{(E)-2-[6-methoxy-5-(4-methyl-1H-imidazol-1-yl)pyridin-2-yl]vinyl}-5,6,7,8-tetrahydro-[1,2,4]triazolo[1,5-a]pyridine] | 29 |
| COc1cc(/C=C/c2nc3n(n2)CCCC3c2ccc(F)cc2)cnc1-n1cnc(C)c1 (single isomer, unassigned) [Example 212, (−)-8-(4-fluorophenyl)-2-{(E)-2-[5-methoxy-6-(4-methyl-1H-imidazol-1-yl)pyridin-3-yl]vinyl}-5,6,7,8-tetrahydro-[1,2,4]triazolo[1,5-a]pyridine] | 100 |
| COc1nc(/C=C/c2nc3n(n2)CCC[C@H]3c2ccccc2Cl)ccc1-n1cnc(C)c1 (single isomer, unassigned) [Example 193, (−)-8-(2-chlorophenyl)-2-{(E)-2-[6-methoxy-5-(4-methyl-1H-imidazol-1-yl)pyridin-2-yl]vinyl}-5,6,7,8-tetrahydro-[1,2,4]triazolo[1,5-a]pyridine] | 80 |
| COc1nc(/C=C/c2nc3n(n2)CC[C@@H]3c2cc(F)c(F)c(F)c2)ccc1-n1cnc(C)c1 (single isomer, unassigned) [Example 254, (−)-2-{(E)-2-[6-methoxy-5-(4-methyl-1H-imidazol-1-yl)pyridin-2-yl]vinyl}-7-(3,4,5-trifluorophenyl)-6,7-dihydro-5H-pyrrolo[1,2-b][1,2,4]triazole] | 50 |

same assay, conditions: rat primary neuronal culture (embryonic day 18 Wistar rat cerebral cortex); cultured three days after addition of compound; Aβx-42 ELISA of the medium; read-out: Aβ42 production reducing effect IC50

| Structure (SMILES) | IC50 [nM] |
| --- | --- |
| COc1nc(/C=C/c2nc3n(n2)CCC[C@H]3c2ccc(F)c(F)c2F)ccc1-n1cnc(C)c1 [Example 339, (S)-2-{(E)-3-[6-methoxy-5-(4-methyl-1H-imidazol-1-yl)pyridin-2-yl]vinyl}-8-(2,3,4-trifluorophenyl)-5,6,7,8-tetrahydro-[1,2,4]triazole[1,5-a]pyridine] | 21 |
